Experimental data as given in article PMC7828211, “LysM Receptor-Like Kinase LYK9 of Pisum Sativum L. May Regulate Plant Responses to Chitooligosaccharides Differing in Structure” (International Journal of Molecular Sciences, 2021).
Where two headings read alike, the source gives them in different places.

Legend:
PsLYR4-ECD = target: T1, PsLYR4-ECD; assay: microscale thermophoresis; assay type: binding, Pisum sativum; details: 50 mM Tris pH 7.4, 10 mM MgCl2, 150 mM NaCl, 0.05% Tween 20, 25 °C, 20 nM RED-tris-NTA labelled protein
T1 construct: gene LYR4; corresponds to residues 8-257), GP67 signal in vector, 6xHis tag, Sf9 cells, predicted 27 kDa, about 32 kDa on blot; RED-tris-NTA labelled
Source text: microscale thermophoresis on PsLYR4-ECD

PsLYK9-ECD = target: T2, PsLYK9-ECD (Lathyrus oleraceus, UniProt A0A9D5AD18); assay: microscale thermophoresis; assay type: binding; details: 50 mM Tris pH 7.4, 10 mM MgCl2, 150 mM NaCl, 0.05% Tween 20, 25 °C; 20 nM RED-tris-NTA labelled protein; read-out: Kd, μM (±SD)
T2 construct: gene KIW84_053210; corresponds to residues 31-235), GP67 signal in vector, 6xHis tag, Sf9 cells, predicted 23 kDa, about 35 kDa on blot; RED-tris-NTA labelled
T2 sequence (A0A9D5AD18 26-230): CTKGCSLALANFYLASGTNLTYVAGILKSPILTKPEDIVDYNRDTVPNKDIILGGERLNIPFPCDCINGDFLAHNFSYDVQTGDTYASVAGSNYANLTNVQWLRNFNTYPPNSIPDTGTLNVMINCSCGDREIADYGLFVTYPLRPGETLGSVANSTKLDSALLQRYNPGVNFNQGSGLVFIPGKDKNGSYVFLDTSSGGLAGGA
Source text: microscale thermophoresis on PsLYK9-ECD

| Compound | Kd (PsLYR4-ECD; read-out: Kd, μM (±SD)) [µM] | Kd (PsLYK9-ECD) [µM] | Kd (PsLYR4-ECD; read-out: Kd) [µM] |
| --- | --- | --- | --- |
| N[C@H]1[C@H](O[C@H]2[C@H](O)[C@@H](N)[C@H](O[C@H]3[C@H](O)[C@@H](N)[C@H](O[C@H]4[C@H](O)[C@@H](N)[C@H](O[C@H]5[C@H](O)[C@@H](N)[C@H](O[C@H]6[C@H](O)[C@@H](N)C(O)O[C@@H]6CO)O[C@@H]5CO)O[C@@H]4CO)O[C@@H]3CO)O[C@@H]2CO)O[C@H](CO)[C@@H](O)[C@@H]1O (stereo partly shown) [CO6-DA] | 22 ± 11 | 42 ± 23 | – |
| N[C@H]1[C@H](O[C@H]2[C@H](O)[C@@H](N)[C@H](O[C@H]3[C@H](O)[C@@H](N)[C@H](O[C@H]4[C@H](O)[C@@H](N)[C@H](O[C@H]5[C@H](O)[C@@H](N)C(O)O[C@@H]5CO)O[C@@H]4CO)O[C@@H]3CO)O[C@@H]2CO)O[C@H](CO)[C@@H](O)[C@@H]1O (stereo partly shown) [CO5-DA] | 45 ± 20 | 76 ± 25 | – |
| N[C@H]1[C@H](O[C@H]2[C@H](O)[C@@H](N)[C@H](O[C@H]3[C@H](O)[C@@H](N)[C@H](O[C@H]4[C@H](O)[C@@H](N)[C@H](O[C@H]5[C@H](O)[C@@H](N)[C@H](O[C@H]6[C@H](O)[C@@H](N)[C@H](O[C@H]7[C@H](O)[C@@H](N)C(O)O[C@@H]7CO)O[C@@H]6CO)O[C@@H]5CO)O[C@@H]4CO)O[C@@H]3CO)O[C@@H]2CO)O[C@H](CO)[C@@H](O)[C@@H]1O (stereo partly shown) [CO7-DA] | 19 ± 13 | 31 ± 11 | – |
| CC(=O)N[C@H]1[C@H](O[C@H]2[C@H](O)[C@@H](NC(C)=O)[C@H](O[C@H]3[C@H](O)[C@@H](NC(C)=O)C(O)O[C@@H]3CO)O[C@@H]2CO)O[C@H](CO)[C@@H](O[C@@H]2O[C@H](CO)[C@@H](O[C@@H]3O[C@H](CO)[C@@H](O)[C@H](O)[C@H]3NC(C)=O)[C@H](O)[C@H]2NC(C)=O)[C@@H]1O (stereo partly shown) [CO5] | – | 5 ± 1.9 | – |
| CC(=O)N[C@H]1[C@H](O[C@H]2[C@H](O)[C@@H](NC(C)=O)C(O)O[C@@H]2CO)O[C@H](CO)[C@@H](O[C@@H]2O[C@H](CO)[C@@H](O[C@@H]3O[C@H](CO)[C@@H](O)[C@H](O)[C@H]3NC(C)=O)[C@H](O)[C@H]2NC(C)=O)[C@@H]1O (stereo partly shown) [CO4] | – | 2.1 ± 0.6 | – |
| CO8-DA | – | 26 ± 15 | 8 ± 5 |
